Assays:
[1] = tested on: barley; test: Herbicidal bioassay, barley (% necrosis); type: in vivo
In short: (§1)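 Lolium perenne, barley, peas and Chinese cabbage at 2-4 true leaf stage sprayed simultaneously with a Potter tower, compounds in DMSO at six concentrations (0.05% to 0.0001%). Phytotoxicity scored as % necrosis per EPPO PP1/135 at set intervals; five replicates per treatment and species; DMSO and water controls.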

[2] = tested on: peas; test: Herbicidal bioassay, peas (% necrosis); type: in vivo
In short: as §1

CC(=O)OCC(C)Oc1ccc(Oc2ccc(C(F)(F)F)cn2)cc1 (stereo not drawn) [Compound 63, 2-[4-[[5-(Trifluoromethyl)-2-pyridyl]oxy]phenoxy]propyl acetate]
Sum of % necrosis in barley ([1]; Dose 0.000001, Day 0): C (less than 50% necrosis)
Sum of % necrosis in barley ([1]; Dose 0.000001, Day 1): C (less than 50% necrosis)
Sum of % necrosis in barley ([1]; Dose 0.000001, Day 3): C (less than 50% necrosis)
Sum of % necrosis in barley ([1]; Dose 0.000001, Day 7): C (less than 50% necrosis)
Sum of % necrosis in barley ([1]; Dose 0.000001, Day 10): C (less than 50% necrosis)
Sum of % necrosis in barley ([1]; Dose 0.000001, Day 14): C (less than 50% necrosis)
Sum of % necrosis in barley ([1]; Dose 0.000001, Day 21): C (less than 50% necrosis)
Sum of % necrosis in barley ([1]; Dose 0.000005, Day 0): C (less than 50% necrosis)
Sum of % necrosis in barley ([1]; Dose 0.000005, Day 1): C (less than 50% necrosis)
Sum of % necrosis in barley ([1]; Dose 0.000005, Day 3): C (less than 50% necrosis)
Sum of % necrosis in barley ([1]; Dose 0.000005, Day 7): C (less than 50% necrosis)
Sum of % necrosis in barley ([1]; Dose 0.000005, Day 10): C (less than 50% necrosis)
Sum of % necrosis in barley ([1]; Dose 0.000005, Day 14): C (less than 50% necrosis)
Sum of % necrosis in barley ([1]; Dose 0.000005, Day 21): C (less than 50% necrosis)
Sum of % necrosis in barley ([1]; Dose 0.00001, Day 0): C (less than 50% necrosis)
Sum of % necrosis in barley ([1]; Dose 0.00001, Day 1): C (less than 50% necrosis)
Sum of % necrosis in barley ([1]; Dose 0.00001, Day 3): C (less than 50% necrosis)
Sum of % necrosis in barley ([1]; Dose 0.00001, Day 7): C (less than 50% necrosis)
Sum of % necrosis in barley ([1]; Dose 0.00001, Day 10): C (less than 50% necrosis)
Sum of % necrosis in barley ([1]; Dose 0.00001, Day 14): C (less than 50% necrosis)
Sum of % necrosis in barley ([1]; Dose 0.00001, Day 21): C (less than 50% necrosis)
Sum of % necrosis in barley ([1]; Dose 0.00005, Day 0): C (less than 50% necrosis)
Sum of % necrosis in barley ([1]; Dose 0.00005, Day 1): C (less than 50% necrosis)
Sum of % necrosis in barley ([1]; Dose 0.00005, Day 3): C (less than 50% necrosis)
Sum of % necrosis in barley ([1]; Dose 0.00005, Day 7): C (less than 50% necrosis)
Sum of % necrosis in barley ([1]; Dose 0.00005, Day 10): C (less than 50% necrosis)
Sum of % necrosis in barley ([1]; Dose 0.00005, Day 14): B (50%-80% necrosis)
Sum of % necrosis in barley ([1]; Dose 0.00005, Day 21): B (50%-80% necrosis)
Sum of % necrosis in barley ([1]; Dose 0.0001, Day 0): C (less than 50% necrosis)
Sum of % necrosis in barley ([1]; Dose 0.0001, Day 1): C (less than 50% necrosis)
Sum of % necrosis in barley ([1]; Dose 0.0001, Day 3): C (less than 50% necrosis)
Sum of % necrosis in barley ([1]; Dose 0.0001, Day 7): C (less than 50% necrosis)
Sum of % necrosis in barley ([1]; Dose 0.0001, Day 10): C (less than 50% necrosis)
Sum of % necrosis in barley ([1]; Dose 0.0001, Day 14): C (less than 50% necrosis)
Sum of % necrosis in barley ([1]; Dose 0.0001, Day 21): C (less than 50% necrosis)
Sum of % necrosis in barley ([1]; Dose 0.0005, Day 0): C (less than 50% necrosis)
Sum of % necrosis in barley ([1]; Dose 0.0005, Day 1): C (less than 50% necrosis)
Sum of % necrosis in barley ([1]; Dose 0.0005, Day 3): C (less than 50% necrosis)
Sum of % necrosis in barley ([1]; Dose 0.0005, Day 7): C (less than 50% necrosis)
Sum of % necrosis in barley ([1]; Dose 0.0005, Day 10): C (less than 50% necrosis)
Sum of % necrosis in barley ([1]; Dose 0.0005, Day 14): C (less than 50% necrosis)
Sum of % necrosis in barley ([1]; Dose 0.0005, Day 21): C (less than 50% necrosis)
Sum of % necrosis in Peas ([2]; Dose 0.000001, Day 0): C (less than 50% necrosis)
Sum of % necrosis in Peas ([2]; Dose 0.000001, Day 1): C (less than 50% necrosis)
Sum of % necrosis in Peas ([2]; Dose 0.000001, Day 3): C (less than 50% necrosis)
Sum of % necrosis in Peas ([2]; Dose 0.000001, Day 7): C (less than 50% necrosis)
Sum of % necrosis in Peas ([2]; Dose 0.000001, Day 10): B (50%-80% necrosis)
Sum of % necrosis in Peas ([2]; Dose 0.000001, Day 14): B (50%-80% necrosis)
Sum of % necrosis in Peas ([2]; Dose 0.000001, Day 21): A (over 80% necrosis)
Sum of % necrosis in Peas ([2]; Dose 0.000005, Day 0): C (less than 50% necrosis)
Sum of % necrosis in Peas ([2]; Dose 0.000005, Day 1): C (less than 50% necrosis)
Sum of % necrosis in Peas ([2]; Dose 0.000005, Day 3): C (less than 50% necrosis)
Sum of % necrosis in Peas ([2]; Dose 0.000005, Day 7): C (less than 50% necrosis)
Sum of % necrosis in Peas ([2]; Dose 0.000005, Day 10): B (50%-80% necrosis)
Sum of % necrosis in Peas ([2]; Dose 0.000005, Day 14): B (50%-80% necrosis)
Sum of % necrosis in Peas ([2]; Dose 0.000005, Day 21): A (over 80% necrosis)
Sum of % necrosis in Peas ([2]; Dose 0.00001, Day 0): C (less than 50% necrosis)
Sum of % necrosis in Peas ([2]; Dose 0.00001, Day 1): C (less than 50% necrosis)
Sum of % necrosis in Peas ([2]; Dose 0.00001, Day 3): C (less than 50% necrosis)
Sum of % necrosis in Peas ([2]; Dose 0.00001, Day 7): C (less than 50% necrosis)
Sum of % necrosis in Peas ([2]; Dose 0.00001, Day 10): B (50%-80% necrosis)
Sum of % necrosis in Peas ([2]; Dose 0.00001, Day 14): B (50%-80% necrosis)
Sum of % necrosis in Peas ([2]; Dose 0.00001, Day 21): A (over 80% necrosis)
Sum of % necrosis in Peas ([2]; Dose 0.00005, Day 0): C (less than 50% necrosis)
Sum of % necrosis in Peas ([2]; Dose 0.00005, Day 1): C (less than 50% necrosis)
Sum of % necrosis in Peas ([2]; Dose 0.00005, Day 3): C (less than 50% necrosis)
Sum of % necrosis in Peas ([2]; Dose 0.00005, Day 7): B (50%-80% necrosis)
Sum of % necrosis in Peas ([2]; Dose 0.00005, Day 10): A (over 80% necrosis)
Sum of % necrosis in Peas ([2]; Dose 0.00005, Day 14): A (over 80% necrosis)
Sum of % necrosis in Peas ([2]; Dose 0.00005, Day 21): A (over 80% necrosis)
Sum of % necrosis in Peas ([2]; Dose 0.0001, Day 0): C (less than 50% necrosis)
Sum of % necrosis in Peas ([2]; Dose 0.0001, Day 1): C (less than 50% necrosis)
Sum of % necrosis in Peas ([2]; Dose 0.0001, Day 3): C (less than 50% necrosis)
Sum of % necrosis in Peas ([2]; Dose 0.0001, Day 7): C (less than 50% necrosis)
Sum of % necrosis in Peas ([2]; Dose 0.0001, Day 10): C (less than 50% necrosis)
Sum of % necrosis in Peas ([2]; Dose 0.0001, Day 14): B (50%-80% necrosis)
Sum of % necrosis in Peas ([2]; Dose 0.0001, Day 21): B (50%-80% necrosis)
Sum of % necrosis in Peas ([2]; Dose 0.0005, Day 0): C (less than 50% necrosis)
Sum of % necrosis in Peas ([2]; Dose 0.0005, Day 1): C (less than 50% necrosis)
Sum of % necrosis in Peas ([2]; Dose 0.0005, Day 3): C (less than 50% necrosis)
Sum of % necrosis in Peas ([2]; Dose 0.0005, Day 7): C (less than 50% necrosis)
Sum of % necrosis in Peas ([2]; Dose 0.0005, Day 10): B (50%-80% necrosis)
Sum of % necrosis in Peas ([2]; Dose 0.0005, Day 14): B (50%-80% necrosis)
Sum of % necrosis in Peas ([2]; Dose 0.0005, Day 21): B (50%-80% necrosis)

— patent US20150094474A1, “AGRICULTURAL CHEMICALS” (Redx Pharma Ltd., priority 2012, published 2015)
